Reference: ChEMBL document CHEMBL1138245, “Discovery of N1-(6-chloroimidazo[2,1-b][1,3]thiazole-5-sulfonyl)tryptamine as a potent, selective, and orally active 5-HT(6) receptor agonist” (J Med Chem, 2007)

Experiments:
[1] = target: T1, 5-hydroxytryptamine receptor 6 (Homo sapiens, UniProt P50406); experiment: Displacement of [3H]LSD from human 5HT6 receptor expressed in HeLa cells; format: cell-based
[2] = target: T1, 5-hydroxytryptamine receptor 6; experiment: Agonist activity at human 5HT6 receptor expressed in HeLa cells assessed as cAMP production; format: functional, cell-based
[3] = target: T1, 5-hydroxytryptamine receptor 6; experiment: Antagonist activity at human 5HT6 receptor expressed in HeLa cells assessed as cAMP production; format: functional, cell-based

T1 sequence (P50406 whole entry): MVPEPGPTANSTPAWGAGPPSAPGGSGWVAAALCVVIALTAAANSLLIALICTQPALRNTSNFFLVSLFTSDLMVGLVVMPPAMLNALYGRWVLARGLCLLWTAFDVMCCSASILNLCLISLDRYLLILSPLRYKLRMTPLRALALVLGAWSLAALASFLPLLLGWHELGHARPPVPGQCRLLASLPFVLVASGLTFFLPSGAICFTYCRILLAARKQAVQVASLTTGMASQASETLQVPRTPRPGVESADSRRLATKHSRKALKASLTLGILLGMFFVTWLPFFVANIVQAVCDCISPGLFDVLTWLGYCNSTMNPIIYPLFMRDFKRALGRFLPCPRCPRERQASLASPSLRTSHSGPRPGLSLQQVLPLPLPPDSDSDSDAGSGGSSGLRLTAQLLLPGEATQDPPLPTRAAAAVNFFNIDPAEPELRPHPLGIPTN

SMILES | Ki [1] [nM] | EC50 [2] [nM] | Emax [2] [%] | IC50 [3] [nM] | Imax [3] [%]
NCCc1cn(S(=O)(=O)c2ccc(Cl)s2)c2ccccc12 | 6 | 181 | 100 |  | 
NCCc1cn(S(=O)(=O)c2ccc(F)cc2)c2ccccc12 | 21 |  |  |  | 
CN(C)CCn1cc(S(=O)(=O)c2cccc(F)c2)c2ccccc21 | 10.3 |  |  |  | 
Cc1ccc(S(=O)(=O)n2cc(CCN)c3ccccc32)cc1 | 8 | 191 | 87.5 |  | 
NCCc1cn(S(=O)(=O)c2cc(Cl)c(Cl)s2)c2ccccc12 | 31 |  |  |  | 
NCCc1cn(S(=O)(=O)c2ccc(Br)s2)c2ccccc12 | 7 | 54 | 72 |  | 
CN1C=C(S(=O)(=O)n2cc(CCN)c3ccccc32)SC1N (configuration not stated) | 10 |  |  | 9.6 | 83
COc1ccc(S(=O)(=O)n2cc(CCN)c3ccccc32)cc1 | 47 |  |  |  | 
NCCc1cn(S(=O)(=O)c2ccc(Cl)c(Cl)c2)c2ccccc12 | 30 |  |  |  | 
